Data as given in patent US11065211B2, “Isoxylitones mediated neurogenesis” (priority 2018, dated 2021).

How the values were obtained:
Type in all cases: cell-based, rat
[1] = tested on: co-cultured cortical (CTX-CoCul) cells; test: Growth supporting effect on co-cultures with BMSCs (phase contrast microscopy); conditions: 24 h, FIG. 2
Experimental: (§1) Wistar rats (150-200 gm) were used to isolate bone marrow (BM). Rats were sacrificed and their femurs were removed aseptically. The bone marrow (BM) was flushed from the shaft of the bone by clipping of the epiphysial ends and flushing using a 26-gauge needle with ˜2 ml of Dulbecco's Modified Eagle's medium (DMEM) supplemented with 5% FBS, 1% penicillin/streptomycin solution, 1% sodium pyruvate and L-glutamine. The BM was then centrifuged for 8 minutes at 1000 rpm. Following centrifugation, cell pellet was collected and 1 ml of fresh DMEM was added. The cell viability was checked using trypan blue exclusion method. The cells were then divided into three equal parts. One part was co-cultured with freshly isolated hippocampal cells in T75 cm^2 flask, 2nd with freshly isolated cortical cells and the third portion (BM cells only) was cultured as a control. The cell density for co-cultures was set at 140,000 cells/ml for each type of culture. The cultured flasks were then incubated at 37° C. and 5% CO2. After 4-5 days, floating hematopoietic cells and dead debris/tissues of hippocampus and cortex were removed and bone marrow stromal cells (BMSCs) were recovered due to their tendency to adhere. Medium was replaced after every 3 to 4 days till cells became 80-90% confluent.
(§2) To evaluate the growth supporting effect of isoxylitones the hippocampal, cortical and co-cultured cells were plated in 6-well plates and treated with 25 μg/mL, 50 μg/mL, 75 μg/mL and 150 μg/mL doses of isoxylitones. Cells with no treatment were set as a control. The plates were incubated for 24 and 72 hrs in a humidified chamber at 37° C. in 5% CO2. To assess the morphology of the treated cells, images were captured and digitalized with Nikon TE-2000 inverted microscope equipped with phase-contrast optics to measure the difference of control group from treated group. The cells were observed carefully in order to check if they maintain their morphological characteristics after treatment with the compound. The doses which supported the maximum proliferation were used for proliferation assays i.e., AlamarBlue and BrdU assay.

[2] = tested on: co-cultured hippocampal (HP-CoCul) cells; test: as above; conditions: 24 h, FIG. 2
Experimental: as §1, §2

cortical cells = test: BrdU proliferation ELISA assay; conditions: 150 μg/ml, 24 h, FIG. 5
Experimental: (§3) BrdU-Incorporation Assay: For measuring the newly synthesized cells during proliferation of treated and un-treated cultured hippocampal, cortical and co-cultured cells, the BrdU (Calbiochem®, CA, USA) cell proliferation ELISA kit was used. This immunoassay is based on the measurement of BrdU (5-bromo-2′-deoxiurydine) incorporation into DNA during division phase of the proliferating cells. For BrdU proliferation assay, primary cultured cells were grown in 75 cm flasks and when cells were confluent they were trypsinized and re-plated with a cell density of 1×10^5 cells/mL in 96-well tissue culture grade flat bottom ELISA plates, i.e., (10,000 cells/well) in DMEM medium (high glucose). The plates were incubated overnight at 37° C. in 5% CO2. Next day, media was changed and adherent cells were treated with different doses of isoxylitones, i.e., 25, 50, 75, 100, and 150 μg/mL and incubated for 24 hrs in a humidified chamber at 37° C. and 5% CO2.
(§4) The following day, the cells were first labeled by the 20 μL of BrdU (1:2000) in fresh medium and kept in a humidified atmosphere at 37° C. for 24 hrs. During 20-24 hrs of labeling period, BrdU is incorporated in place of thymidine into the DNA of the proliferating cells. After removing the labeling medium by tapping off the plate, cells were fixed, and DNA denatured in one step by adding 200 μL of fixative or Denat solution (provided in the kit) in each well following incubation for 30 minutes at room temperature.
(§5) The fixation and denaturation of DNA is required to expose the incorporated BrdU for detection by the antibody. The fixative or Denat solution was removed by flicking off and tapping on paper towel. […] The immune complexes were detected by the subsequent substrate reaction and the absorbance was measured on spectrophotometer plate reader at dual wave lengths of 450-595 nm within 30 minutes of adding the stop solution. The data was analyzed using SPSS and graphs were made on Excel.

hippocampal cells = test: BrdU proliferation ELISA assay; conditions: 24 h, FIG. 5
Experimental: as §3, §4, §5

## CC(=O)C=C1C=C(C)CC(C)(C)C1 (mixture of isomers) [isoxylitones]
[1]
  number of proliferating cells: Marked increase
  variation in morphology: no significant variation in the morphology
[2]; HP-CoCul cells
  number of proliferating cells: Marked increase
  variation in morphology: no significant variation in the morphology
[2]; co-cultured cells
  rate of proliferation in hippocampus cells as compared to cortical cells: almost double
Cortical cells
  BrdU positive cells: slightly increased BrdU positive cells
Hippocampal cells; 100 μg/ml
  BrdU positive cells: significantly increased BrdU positive cells
Hippocampal cells; 150 μg/ml
  BrdU positive cells: significantly increased BrdU positive cells
